Where “and” joins values, the source holds several entries; their conditions need not be identical. Identical values can stand only once.
Key:
PDGFR-ALPHA = PDGFR-ALPHA (Homo sapiens, UniProt P16234); assay: Nanosyn kinase profiling, mobility shift assay; details: read-out: % inhibition by neratinib
MST1 = target: T1, MST1 (Homo sapiens, UniProt Q13043); assay: LanthaScreen Eu kinase binding assay (HTS and dose response); set-up: purchased ThermoFisher; details: three experiments
T1 sequence (Q13043 1-487): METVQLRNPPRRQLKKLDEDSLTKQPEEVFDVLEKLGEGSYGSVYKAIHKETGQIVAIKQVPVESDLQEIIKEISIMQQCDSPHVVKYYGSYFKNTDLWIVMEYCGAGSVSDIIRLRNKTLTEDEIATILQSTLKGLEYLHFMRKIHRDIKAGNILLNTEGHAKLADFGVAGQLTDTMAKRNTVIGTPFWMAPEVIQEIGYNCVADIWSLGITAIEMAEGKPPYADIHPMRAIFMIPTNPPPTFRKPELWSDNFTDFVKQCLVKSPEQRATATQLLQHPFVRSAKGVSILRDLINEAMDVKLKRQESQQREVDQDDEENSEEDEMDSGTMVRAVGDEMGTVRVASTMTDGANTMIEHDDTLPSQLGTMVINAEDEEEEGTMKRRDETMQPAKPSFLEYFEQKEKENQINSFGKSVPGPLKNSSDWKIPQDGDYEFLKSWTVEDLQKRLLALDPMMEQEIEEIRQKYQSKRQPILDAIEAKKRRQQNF
Protocol: A total of 39 hits were selected for 9-point dose response confirmation in triplicate, starting at 1 μM followed by 1:5 serial dilution.
Compounds in 1000× DMSO stock solution were dispensed by using Echo555 liquid dispensing system (Labcyte, CA) to 1536-well microplate (Corning, NY). Kinase buffer A (ThermoFisher, MA) was prepared and added to each well. […] Each reagent was added to the microplate in equal volume.

JAK1 = JAK1 (Homo sapiens, UniProt P23458); assay: Nanosyn kinase profiling, mobility shift assay; details: read-out: % inhibition by neratinib
ABL1 = ABL1 (Homo sapiens, UniProt P00519); assay: Nanosyn kinase profiling, mobility shift assay; details: read-out: % inhibition by neratinib
MLD–STZ C57BL/6J mice = assay: MLD–STZ model: intraperitoneal glucose tolerance test (ipGTT); type: in vivo, mouse; set-up: ipGTT glucose / AUC ipGTT: unit not given here
Protocol: C57Bl/6J mice were injected with 40 mg/kg streptozotocin or citrate buffer for 5 consecutive days. […] In d, basal glucose values were normalized to 100%. e Insulin secretion measured from retro-orbital blood draw during an ipGTT measured before (0 min) and 15 min after glucose injection; data are expressed as the ratio of secreted insulin at 15 min/0 min (stimulatory index). f The ratio of secreted insulin and glucose is calculated at fed state. g–i Mice were killed at day 35. g β-cell mass (given as percentage of the whole pancreatic section from ten sections spanning the width of the pancreas) and quantitative analyses from triple staining for h TUNEL or i Ki67, insulin, and DAPI expressed as percentage of TUNEL- or Ki67-positive β-cells ±SEM. An average number of 2331 (h), or 26369 (i) β-cells were counted. n = 9 mice/group for (a); n = 4–12 for (b); n = 5–15 for (c) and (d); n = 12–19 for (e); n = 8–14 for (f); n = 4–9 for (g); n = 4–11 for (h); and n = 6–11 mice/groupfor (i); all from three independent experiments).
For intraperitoneal glucose tolerance tests, mice were fasted 12 h overnight and injected i.p. with glucose (40%; B.Braun, Melsungen, Germany) at a dose of 1 g/kg body weight. Blood samples were obtained at time points 0, 15, 30, 60, 90, and 120 min for glucose measurements by using a Glucometer. For i.p. insulin tolerance tests, mice were injected with 0.75 U/kg body weight recombinant human insulin (Novolin, Novo Nordisk) after 4–5-h fasting, and glucose concentration was determined with the Glucometer. Insulin secretion was measured before (0 min) and after (15 and 30 min) i.p. injection of glucose (2 g/kg) and measured by using ultrasensitive mouse Elisa kit (ALPCO Diagnostics, Salem, NH).

INS-1E cells = assay: Caspase-3 activation Nucview assay, thapsigargin; type: cell-based, rat; details: 0.1 µM thapsigargin, NucView 488
Protocol: Apoptosis was induced after 24 h of compound treatment by 0.1 µM Thapsigargin (Torics, Bristol, United Kingdom) with caspase-3 substrate, Nucview 488 (Biotium, CA) in the treatment.
1 50 Supplementary Figure 3
100 Cell number Cell Number
evaluated through Nucview488 and Hoechst33342.
were analyzed through qRT-PCR.
detected on plate reader.

PDGFR-ALPHA, sequence (P16234 24-1089): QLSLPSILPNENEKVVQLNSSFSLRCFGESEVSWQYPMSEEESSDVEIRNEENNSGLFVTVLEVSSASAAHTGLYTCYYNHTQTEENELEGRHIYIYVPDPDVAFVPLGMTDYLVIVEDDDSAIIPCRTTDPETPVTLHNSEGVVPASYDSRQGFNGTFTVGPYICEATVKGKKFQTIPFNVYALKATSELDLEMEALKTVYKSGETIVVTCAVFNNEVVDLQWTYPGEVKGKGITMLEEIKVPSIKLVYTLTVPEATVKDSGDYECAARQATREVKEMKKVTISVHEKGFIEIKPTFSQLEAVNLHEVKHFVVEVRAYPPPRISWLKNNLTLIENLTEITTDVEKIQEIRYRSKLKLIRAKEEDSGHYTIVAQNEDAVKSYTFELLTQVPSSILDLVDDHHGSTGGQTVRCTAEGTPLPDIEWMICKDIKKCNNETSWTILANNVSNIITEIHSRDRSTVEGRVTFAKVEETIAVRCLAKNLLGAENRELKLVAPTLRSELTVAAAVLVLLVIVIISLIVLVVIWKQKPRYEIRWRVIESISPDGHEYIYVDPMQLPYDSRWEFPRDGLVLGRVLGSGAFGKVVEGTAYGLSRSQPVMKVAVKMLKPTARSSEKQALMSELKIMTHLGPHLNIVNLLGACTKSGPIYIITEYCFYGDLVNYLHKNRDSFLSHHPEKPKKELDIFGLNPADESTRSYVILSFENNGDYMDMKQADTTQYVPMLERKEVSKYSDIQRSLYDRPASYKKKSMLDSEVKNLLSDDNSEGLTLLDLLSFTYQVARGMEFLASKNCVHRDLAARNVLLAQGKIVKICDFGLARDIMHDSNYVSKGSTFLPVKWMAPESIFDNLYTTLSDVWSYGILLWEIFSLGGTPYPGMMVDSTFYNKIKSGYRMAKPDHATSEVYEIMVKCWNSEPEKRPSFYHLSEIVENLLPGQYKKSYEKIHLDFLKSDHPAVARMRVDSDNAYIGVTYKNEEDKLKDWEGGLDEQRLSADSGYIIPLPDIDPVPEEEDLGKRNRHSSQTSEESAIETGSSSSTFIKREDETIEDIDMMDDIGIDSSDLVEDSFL
JAK1, sequence (P23458 whole entry): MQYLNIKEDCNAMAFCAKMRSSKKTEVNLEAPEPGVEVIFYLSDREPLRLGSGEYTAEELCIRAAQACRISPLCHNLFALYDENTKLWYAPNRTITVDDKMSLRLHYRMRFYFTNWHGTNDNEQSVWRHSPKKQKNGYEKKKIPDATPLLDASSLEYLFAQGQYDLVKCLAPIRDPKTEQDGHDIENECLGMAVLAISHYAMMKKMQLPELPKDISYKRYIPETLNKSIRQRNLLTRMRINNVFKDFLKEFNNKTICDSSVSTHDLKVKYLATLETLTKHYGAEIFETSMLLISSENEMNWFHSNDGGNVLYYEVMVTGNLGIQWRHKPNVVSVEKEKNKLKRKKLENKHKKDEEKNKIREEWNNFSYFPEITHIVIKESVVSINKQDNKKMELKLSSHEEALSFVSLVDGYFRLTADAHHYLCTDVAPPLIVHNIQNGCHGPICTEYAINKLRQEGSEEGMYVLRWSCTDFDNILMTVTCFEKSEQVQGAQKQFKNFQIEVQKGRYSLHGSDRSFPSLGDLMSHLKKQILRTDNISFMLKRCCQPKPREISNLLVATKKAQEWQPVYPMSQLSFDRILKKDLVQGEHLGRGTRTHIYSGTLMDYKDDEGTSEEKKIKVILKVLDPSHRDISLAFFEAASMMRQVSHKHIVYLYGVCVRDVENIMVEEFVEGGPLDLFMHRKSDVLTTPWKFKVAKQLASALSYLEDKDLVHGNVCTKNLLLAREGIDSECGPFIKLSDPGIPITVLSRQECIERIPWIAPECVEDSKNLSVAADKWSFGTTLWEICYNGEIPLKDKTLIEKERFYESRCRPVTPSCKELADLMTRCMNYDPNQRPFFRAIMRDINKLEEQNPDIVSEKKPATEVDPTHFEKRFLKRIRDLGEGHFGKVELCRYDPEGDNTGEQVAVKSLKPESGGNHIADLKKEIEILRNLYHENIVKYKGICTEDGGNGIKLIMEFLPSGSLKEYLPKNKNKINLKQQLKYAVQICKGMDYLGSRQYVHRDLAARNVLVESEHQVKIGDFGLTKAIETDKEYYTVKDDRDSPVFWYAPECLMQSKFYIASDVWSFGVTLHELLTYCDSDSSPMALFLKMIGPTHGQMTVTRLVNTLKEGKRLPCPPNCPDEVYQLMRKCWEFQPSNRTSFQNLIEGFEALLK
ABL1, sequence (P00519 whole entry): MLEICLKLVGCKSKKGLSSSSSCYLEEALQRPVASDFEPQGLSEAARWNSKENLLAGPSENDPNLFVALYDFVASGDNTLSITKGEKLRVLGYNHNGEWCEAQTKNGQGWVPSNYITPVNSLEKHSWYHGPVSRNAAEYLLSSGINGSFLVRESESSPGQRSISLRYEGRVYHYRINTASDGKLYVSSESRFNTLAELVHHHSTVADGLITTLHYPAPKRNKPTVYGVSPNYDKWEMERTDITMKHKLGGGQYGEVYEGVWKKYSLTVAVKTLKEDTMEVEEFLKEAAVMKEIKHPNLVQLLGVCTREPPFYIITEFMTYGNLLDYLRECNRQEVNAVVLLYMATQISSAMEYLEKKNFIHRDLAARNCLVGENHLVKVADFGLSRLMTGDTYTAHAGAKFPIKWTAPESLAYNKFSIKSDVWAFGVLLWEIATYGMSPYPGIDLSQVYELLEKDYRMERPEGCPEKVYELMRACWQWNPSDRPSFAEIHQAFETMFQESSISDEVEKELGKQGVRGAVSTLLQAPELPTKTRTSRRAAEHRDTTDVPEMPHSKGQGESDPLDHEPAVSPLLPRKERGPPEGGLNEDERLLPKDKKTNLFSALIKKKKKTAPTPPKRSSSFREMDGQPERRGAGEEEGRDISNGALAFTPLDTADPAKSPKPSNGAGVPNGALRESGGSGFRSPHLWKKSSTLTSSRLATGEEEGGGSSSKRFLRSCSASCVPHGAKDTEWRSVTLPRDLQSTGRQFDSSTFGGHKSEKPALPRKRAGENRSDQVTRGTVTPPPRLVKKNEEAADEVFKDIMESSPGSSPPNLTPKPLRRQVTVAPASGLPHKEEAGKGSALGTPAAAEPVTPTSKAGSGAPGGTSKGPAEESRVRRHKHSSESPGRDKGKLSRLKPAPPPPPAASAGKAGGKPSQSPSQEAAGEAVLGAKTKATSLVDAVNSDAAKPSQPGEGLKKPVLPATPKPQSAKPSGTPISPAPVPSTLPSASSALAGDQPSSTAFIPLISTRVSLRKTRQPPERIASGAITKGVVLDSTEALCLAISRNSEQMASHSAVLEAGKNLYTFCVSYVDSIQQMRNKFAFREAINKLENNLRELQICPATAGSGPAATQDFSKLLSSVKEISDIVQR

`CCOc1cc2ncc(C#N)c(Nc3ccc(OCc4ccccn4)c(Cl)c3)c2cc1NC(=O)/C=C/CN(C)C` [neratinib] was tested, and the inhibition at 10 µM (PDGFR-ALPHA) was 31%, the “MST1 (% activity)” value (MST1; neratinib 0.02 nM) was 87.31% and 98.20% and 108.86% and the “MST1 (% activity)” value (MST1; neratinib 0.06 nM) was 99.80% and 103.92%. For the same compound, the activity at 60 pM (MST1; neratinib 0.06 nM) was 114%, the “MST1 (% activity)” value (MST1; neratinib 0.17 nM) was 91.02% and 100.09% and the activity at 0.00017 µM (MST1; neratinib 0.17 nM) was 97.1%. The “MST1 (% activity)” value (MST1; neratinib 0.51 nM) was 98.60% and 98.84%, the activity at 0.00051 µM (MST1; neratinib 0.51 nM) was 101% and the “MST1 (% activity)” value (MST1; neratinib 1.52 nM) was 88.42% and 89.31%. For the same compound, the activity at 0.00152 µM (MST1; neratinib 1.52 nM) was 103%, the “MST1 (% activity)” value (MST1; neratinib 4.57 nM) was 67.07% and 80.02% and the activity at 0.00457 µM (MST1; neratinib 4.57 nM) was 82.2%. The “MST1 (% activity)” value (MST1; neratinib 13.72 nM) was 46.34% and 78.85% and 63.80%, the “MST1 (% activity)” value (MST1; neratinib 41.15 nM) was 53.70% and 49.03% and the activity at 0.04115 µM (MST1; neratinib 41.15 nM) was 48.9%. The “MST1 (% activity)” value (MST1; neratinib 123.46 nM) was 24.15% and 30.50%, the activity at 0.12346 µM (MST1; neratinib 123.46 nM) was 30.6% and the “MST1 (% activity)” value (MST1; neratinib 370.37 nM) was 7.98% and 6.57%. For the same compound, the activity at 0.37037 µM (MST1; neratinib 370.37 nM) was 11.7%, the “MST1 (% activity)” value (MST1; neratinib 1111.11 nM) was 8.75% and 1.83% and the “MST1 (% activity)” value (MST1; neratinib 3333.33 nM) was 4.17% and -2.20% and -1.83%. The inhibition at 10 µM (JAK1) was 5%, the inhibition at 10 µM (ABL1) was 36% and the “glucose tolerance in STZ mice” value (MLD–STZ C57BL/6J mice; 5 mg/kg i.p. daily) was “significantly improved glucose tolerance”. The ipGTT glucose (MLD–STZ C57BL/6J mice; NeraCtr, 0 min, Mean) was 59.25, the ipGTT glucose (MLD–STZ C57BL/6J mice; NeraCtr, 0 min after glc, individual mice) was 51 and 48 and 70 and 68 and the ipGTT glucose (MLD–STZ C57BL/6J mice; NeraCtr, 15 min, Mean) was 210.75. For the same compound, the ipGTT glucose (MLD–STZ C57BL/6J mice; NeraCtr, 15 min after glc, individual mice) was 211 and 183 and 258 and 191, the ipGTT glucose (MLD–STZ C57BL/6J mice; NeraCtr, 30 min, Mean) was 316.5 and the ipGTT glucose (MLD–STZ C57BL/6J mice; NeraCtr, 30 min after glc, individual mice) was 290 and 203 and 500 and 273. For the same compound, the ipGTT glucose (MLD–STZ C57BL/6J mice; NeraCtr, 60 min, Mean) was 219.25, the ipGTT glucose (MLD–STZ C57BL/6J mice; NeraCtr, 60 min after glc, individual mice) was 166 and 171 and 373 and 167 and the ipGTT glucose (MLD–STZ C57BL/6J mice; NeraCtr, 90 min, Mean) was 134.5. For the same compound, the ipGTT glucose (MLD–STZ C57BL/6J mice; NeraCtr, 90 min after glc, individual mice) was 133 and 136 and 158 and 111, the ipGTT glucose (MLD–STZ C57BL/6J mice; NeraCtr, 120 min, MEAN) was 96 and the ipGTT glucose (MLD–STZ C57BL/6J mice; NeraCtr, 120 min after glc, individual mice) was 91 and 96 and 116 and 81. The “AUC ipGTT” value (MLD–STZ C57BL/6J mice; NeraCtr, individual mice) was 20407.5 and 18322.5 and 14535 and 19072.5, the ipGTT glucose (MLD–STZ C57BL/6J mice; NeraSTZ, 0 min, mean line) was 61.5 and the ipGTT glucose (MLD–STZ C57BL/6J mice; NeraSTZ, 0 min after glc, individual mice) was 67 and 66 and 51 and 57 and 80 and 63 and 62 and 69 and 65 and 44. For the same compound, the ipGTT glucose (MLD–STZ C57BL/6J mice; NeraSTZ, 15 min, mean line) was 285.917, the ipGTT glucose (MLD–STZ C57BL/6J mice; NeraSTZ, 15 min after glc, individual mice) was 304 and 272 and 259 and 246 and 291 and 315 and 312 and 420 and 217 and 264 and the ipGTT glucose (MLD–STZ C57BL/6J mice; NeraSTZ, 30 min, mean line) was 319.5. For the same compound, the ipGTT glucose (MLD–STZ C57BL/6J mice; NeraSTZ, 30 min after glc, individual mice) was 308 and 348 and 303 and 268 and 319 and 424 and 341 and 371 and 315 and 292 and 282 and 263, the ipGTT glucose (MLD–STZ C57BL/6J mice; NeraSTZ, 60 min, mean line) was 284.417 and the ipGTT glucose (MLD–STZ C57BL/6J mice; NeraSTZ, 60 min after glc, individual mice) was 274 and 307 and 368 and 214 and 271 and 308 and 291 and 343 and 321 and 283 and 219. For the same compound, the ipGTT glucose (MLD–STZ C57BL/6J mice; NeraSTZ, 90 min after glc, individual mice) was 181 and 290 and 234 and 159 and 228 and 264 and 184 and 260 and 250 and 205 and 248 and 195, the ipGTT glucose (MLD–STZ C57BL/6J mice; NeraSTZ, 120 min after glc, individual mice) was 136 and 229 and 175 and 112 and 213 and 180 and 169 and 210 and 211 and 164 and 187 and the “AUC ipGTT” value (MLD–STZ C57BL/6J mice; NeraSTZ, individual mice) was 27682.5 and 33750 and 31770 and 23017.5 and 30135 and 34725 and 29565 and 36360 and 31732.5. The “caspase-3 activation induced by thapsigargin” value (INS-1E cells) was “dose-dependently abolished”.

From PMC6825211 (Nature Communications, 2019)
